Data on one compound can be found in patent US5935944A, “Formulation for I.V. administration of the boron delivery drug, boronophenylalanine (BPA)” (Neutron Technology Corporation, priority 1996, dated 1999).

Structures are written as SMILES. Values after ≈ are worked out from the molar mass of the structure shown.

In general, solubility refers to the concentration that dissolves in the medium under given conditions. A lower solubility goes with little dissolved substance.

For data set [1] the following is noted: pH 7.4; background statement; cited from earlier work.
In another data set the test system is cancer cells. The settings on record: apparently by amino acid transport system uptake; cited from earlier work.

Description for physchem: For solubility determinations, an excess of BPA was always used. All formulations were sonicated (ultrasonic wave treatment), adjusted to a final pH of 7.4, and filtered through a 0.22 micron filter. The BPA concentration of filtered solutions was calculated from B levels which were measured by inductively coupled plasma atomic emission spectrometry. […] Unless otherwise specified, BPA and B levels are reported as mean±standard error of the mean (SEM) of three experiments.

For `NC(Cc1ccc(B(O)O)cc1)C(=O)O` (stereo not shown) [BPA, P-boronophenylalanine], the “water solubility at physiological pH” value in data set [1] is reported as less than 4 ppm. Further, in the data set on cancer cells, the “selective accumulation in cancer cells” value is reported as “does seem to selectively accumulate in cancer cells”. Further, the solubility in the data set “physchem” (buffer, pH 7.4, aqueous buffer) is 2.2 ± 0.4 mg/mL (≈ 10.5 mM); in the data set “physchem” (water, pH 7.4, water) it was 1.15 to 3.7 mg/mL (≈ 5.5 to 17.7 mM).
